Results reported in patent publication US9555058B2, “Antigen presenting cancer vaccine” (CALIFORNIA STEM CELL, INC., priority 2011, dated 2017).

Key:
Assay type in all cases: cell-based, human
[1] = test system: melanoma cell lines; assay: Apoptosis by flow cytometry using 7-AAD and annexin-V; conditions: 1000 IU/mL IFN-gamma 72 hours with pan caspase inhibitor
Experimental: The methodology of the study was as follows. Autologous and model melanoma tumor cell lines were incubated with 1000 IU/mL of IFN-gamma for 72 hours prior to assaying for autophagy, apoptosis and MHC class II expression. Autophagy was detected by immunobloting with antibodies against LC3 II and by flow cytometry with Enzo's CytoID® Autophagy Detection Kit. Apoptosis and MHC class II induction were assayed by flow cytometry using 7-AAD and annexin-V staining and antibodies against MHC class II, respectively.
Analysis of tumor cell death and changes in major histocompatibility class II expression in response to IFN-gamma were conducted by use of antibodies directed against MHC class II, annexin-V and 7-amino-actinomycin D (7-AAD) and acquired on a Beckton-Dickenson FACS Calibur® flow cytometer.
What was investigated was the induction of autophagy, apoptosis and MHC class II molecules after IFN-gamma treatment of melanoma tumor cells in vitro. Autologous and model melanoma tumor cell lines were incubated with 1000 IU/mL of IFN-gamma for 72 hours prior to assaying for autophagy, apoptosis and […] class II expression. Autophagy was detected by immunobloting with antibodies against LC3 II and by flow cytometry with Enzo's CytoID Autophagy Detection Kit. […]

[2] = test system: MHC class II; assay: Flow cytometry of MHC class II induction by IFN-gamma in autologous tumor cells; conditions: 1000 IU/mL IFN-gamma 72 hours
Experimental: (§1) FIGS. 2A-D show characterization of IFN-gamma treated autologous tumor cells used for loading dendritic cells. Autologous melanoma tumor cells were treated with or without 1000 IU/mL IFN-gamma for 72 hours in 15% FBS/ECS in RPMI, harvested and irradiated with 100Gy and cryopreserved. Cells were then thawed in AIMV and a sample taken for flow cytometry and for preparation of cell lysates for immunoblotting prior to antigen loading of DCs. An example of four separate autologous melanoma cell lines is shown (FIG. 2A, FIG. 2B and FIG. 2C). Induction major histocompatibility complexes by IFN-gamma treatment of autologous tumor cells (FIG. 2D). Tumor cells were harvested after being treated with or without 1000 IU/mL IFN-gamma for 72 hours and then assayed for MHC class I and class II. Control isotype antibodies were used to identify positive populations. Dark data points indicate median mean fluorescent plus/minus 95% confidence interval. N=65. After irradiation, melanoma cells are checked by assays to ensure that there is not any mitosis.
Phenotypic characterization of the dendritic cell populations were performed using monoclonal antibodies against surface markers obtained from BD Pharmingen San Diego, Calif.: anti-MHC class II conjugated to PerCp, anti CD11c conjugated to APC, anti-CD80, anti-CD83, anti-CD86 conjugated to PE. Isotype controls were used to determine percent positive cells. […]

[3] = test system: SK-5-Mel cells; assay: Autophagy by flow cytometry (Enzo CytoID Autophagy Detection), IFN-gamma with or without z-VAD; conditions: 1000 IU/mL IFN-gamma 72 hours; 20 uM z-VAD where present; vs 5% FBS/RPMI
Experimental: FIGS. 6A and 6B reveal apoptosis and autophagy induced in response to interferon-gamma. SK-5-Mel cells were incubated with 1000 IU/mL of IFN-gamma for 72 hours after which non-adherent and adherent populations were collected and assayed for apoptosis and autophagy by flow cytometry using […] and Annexin-V (FIG. 6A). Enzo Cyto-ID Autophagy Detection Dye was used to measure autophagy by flow cytometry by measuring the mean intensity peak shift of dye provided by the manufacturer (FIG. 6B). Fold changes in the peak shift in comparison to 5% FBS/RPMI are shown in FIG. 6C with serum-free as positive control for the induction of autophagy.
SK-5-Mel cells were treated with 1000 IU/mL of IFN-gamma in the presence of 20 uM of the pan-caspase inhibitor z-VAD or its control compound, z-FA for 72 hours. The cells were harvested and assayed for autophagy by flow cytometry as in FIG. 6C.
The methodology of the study was as follows. […] Autophagy was detected by immunobloting with antibodies against LC3 II and by flow cytometry with Enzo's CytoID® Autophagy Detection Kit. […]
What was investigated was the induction of autophagy, apoptosis and MHC class II molecules after IFN-gamma treatment of melanoma tumor cells in vitro. […] Autophagy was detected by immunobloting with antibodies against LC3 II and by flow cytometry with Enzo's CytoID Autophagy Detection Kit. […]

[4] = test system: melanoma cell lines; assay: Immunohistochemistry of a panel of melanoma associated antigens with or without IFN-gamma; conditions: 1000 IU/mL IFN-gamma 72 hours, N=27 samples
Experimental: Expression of a panel antigens by melanoma lines were determined using immunocytochemical procedure. Cells were cultured in 8-chamber culture slides (Thermo Fisher, Rochester, N.Y.) in the presence or absence of 1000 IU/mL IFN-gamma. After 72 hours, the cells were washed 3 times with 1× Phosphate Buffered Saline (PBS) and fixed in cold acetone. After blocking endogenous peroxidase, cells were incubated with appropriate primary antibodies against the antigens listed. Immunohistochemistry was performed using biotinylated anitmouse or rabbit immunoglobulins, Super Sensitive enzyme-conjugated streptavidin labeling and horse radish peroxidase chromogen, and substrate kits (Biogenex, San Ramon, Calif.). The reactivity of the following anti-human polyclonal or monoclonal antibodies was investigated with isotype matched control antibody: S-100 and HMB-45 (Biogenex, San Ramon, Calif.), Mel-2, Mel-5, Mart-1 (Signet, Dedham, Mass.), Tyrosinase and Mage-1 (Thermo Scientific, Fremont, Calif.), Melan-A, HLA-class I and HLA-class II (Dako, Denmark).
Lysates from cells that were incubated in the presence or absence of IFN-gamma were subjected to immunoblotting for a variety of molecules that may be important mediators of immunity (FIG. 1B). In the setting of melanoma cells treated with IFN-gamma, heat shock proteins appear to be differentially regulated but remain largely present in the cell preparations, especially in the case of hsp-70.

[5] = test system: autologous melanoma cell lines; assay: Immunoblotting of lysates of melanoma cells incubated with or without IFN-gamma; conditions: 1000 IU/mL IFN-gamma 72 hours; four autologous melanoma cell lines
Experimental: as §1
Cytoplasmic cell lysates were prepared with Mammalian Protein Extraction Reagent (Thermo Scientific, Rockford, Ill.) plus protease inhibitor cocktail (Roche, Indianapolis, Ind.) at 10,000 cells/uL on ice. Approximately 25 uLs/lane of cell lysates were separated on 12.5% tris-glycine gels, transferred to PVDF membrane and probed with antibodies against the following: calreticulin (MBL, Woburn, Mass.), Hsp-60, Hsp-70, Hsp-90 (R&D Systems, Minneapolis, Minn.), HMBG-1 (Cell Signaling, Danvers, Mass.), ICAM-1 (Santa Cruz Biotech, Santa Cruz, Calif.), Mel-4, Mart-1 (Signet, Emeryville, Calif.), tyrosinase (Upstate, Lake Placid, N.Y.) and GADPH (Calbiochem, Darmstadt, Germany).
Lysates from cells that were incubated in the presence or absence of IFN-gamma were subjected to immunoblotting for a variety of molecules that may be important mediators of immunity (FIG. 1B). […]

[6] = test system: autologous melanoma tumor cells; assay: Trypan-blue dye exclusion viability after IFN-gamma; conditions: IFN-gamma 72 hours in complete medium; N=47; p=0.014 vs 89.1±6.8% not treated
Experimental: Pure tumor cells were generated according to Cornforth, et al. (Cornforth, et al. (2011) Cancer Immunol. Immunother. 60:123-131; Dillman, et al. (1993) J. Immunother. Emphasis Tumor Immunol. 14:65-69; Dillman, et al. (2000) Cancer Biother. Radiopharm. 15:161-168). The tumor cells were then incubated with 1,000 U/mL of interferon-gamma (InterMune, Brisbane, Calif.) for 72 h, irradiated with 100Gy from a cesium source and cryopreserved (Selvan, et al. (2007) Int. J. Cancer 122:1374-1383; Selvan, et al. (2010) Melanoma Res. 20:280-292). The IFN-gamma treated and irradiated tumor cells were recovered from cryopreservation, washed with phosphate buffered saline (PBS), and then added to the cultivated dendritic cells (DCs) and then incubated for about 24 h. The antigen-loaded DCs were harvested by gentle scraping with a rubber policeman and cryopreserved. Aliquots of IFN-gamma treated or untreated tumor cells and loaded DCs were obtained for flow cytometry evaluation and trypan-blue exclusion assay. […]

Substance	apoptosis in IFN-gamma treated cells [1]	cases with MHC class II induction greater than two fold [2] [%]	autophagy, fold change of peak shift [3] [fold change]	Change after IFN-gamma treatment: Down ([4]; antigen MAGE-1) [%]	Change after IFN-gamma treatment: None ([4]; antigen Mel-2) [%]	Change after IFN-gamma treatment: Down ([4]; antigen Tyrosinase) [%]	Change after IFN-gamma treatment: None ([4]; antigen Tyrosinase) [%]	ICAM-1 expression (immunoblot) [5]	calreticulin and HMGB-1 expression (immunoblot) [5]	common melanoma antigens (mel-4, Mart-1 and tyrosinase) expression (immunoblot) [5]	viability (trypan-blue dye exclusion) [6] [%]
carbobenzoxy-valyl-alanyl-aspartyl-[O-methyl]-fluoromethylketone [Z-VAD]	prevents apoptosis	–	–	–	–	–	–	–	–	–	–
interferon-gamma [IFN-gamma, interferon-gamma (InterMune, Brisbane, Calif.), type II interferon, used at 1000 IU/mL for 72 hours on melanoma cells]	–	70	2.75±0.15	61.5	46.2	60.0	40.0	significantly up-regulated	up-regulated in some cases	down regulated	84.9±9.3
